Assays:
Synthase I [1] = target: T1, Synthase I (Arabidopsis thaliana, UniProt P52410); assay: Inhibition with cerulenin; type: biochemical
T1 sequence (P52410 47-473): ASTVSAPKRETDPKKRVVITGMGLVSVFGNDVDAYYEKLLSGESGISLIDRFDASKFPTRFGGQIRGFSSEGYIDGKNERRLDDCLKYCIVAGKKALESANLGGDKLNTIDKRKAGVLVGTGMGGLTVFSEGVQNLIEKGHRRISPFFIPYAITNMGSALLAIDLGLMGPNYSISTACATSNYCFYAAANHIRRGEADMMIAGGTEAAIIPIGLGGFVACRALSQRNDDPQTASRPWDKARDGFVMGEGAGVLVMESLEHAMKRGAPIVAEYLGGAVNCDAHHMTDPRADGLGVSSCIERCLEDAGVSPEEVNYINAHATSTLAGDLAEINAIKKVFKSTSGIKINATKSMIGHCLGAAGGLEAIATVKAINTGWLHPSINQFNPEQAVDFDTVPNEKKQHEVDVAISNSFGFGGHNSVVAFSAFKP
From the text: (§1) Other plant synthases may also find applicability by this invention, including synthase III type activities. Differences between synthases I, II, and III are also observed in inhibition with cerulenin. […] In FIG. 1, a time course assay of cerulenin effects on synthase I and synthase II activities is provided.

synthase II [2] = target: T2, synthase II (Arabidopsis thaliana, UniProt Q9C9P4); assay: Inhibition with cerulenin; type: biochemical
T2 sequence (Q9C9P4 104-541): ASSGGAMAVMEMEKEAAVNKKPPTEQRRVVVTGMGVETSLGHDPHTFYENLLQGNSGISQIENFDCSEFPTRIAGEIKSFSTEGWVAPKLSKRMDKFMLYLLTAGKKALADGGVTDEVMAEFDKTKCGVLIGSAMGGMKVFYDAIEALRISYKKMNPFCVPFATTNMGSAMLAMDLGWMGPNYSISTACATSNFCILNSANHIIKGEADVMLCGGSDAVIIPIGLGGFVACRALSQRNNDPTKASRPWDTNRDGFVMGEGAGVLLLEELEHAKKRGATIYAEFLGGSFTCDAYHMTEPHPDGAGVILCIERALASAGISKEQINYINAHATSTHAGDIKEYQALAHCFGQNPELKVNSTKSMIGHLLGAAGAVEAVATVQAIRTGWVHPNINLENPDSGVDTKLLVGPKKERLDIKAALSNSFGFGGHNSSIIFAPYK
From the text: as §1

synthase III = target: T3, synthase III (Arabidopsis thaliana, UniProt P49243); assay: Inhibition with cerulenin; type: biochemical
T3 sequence (P49243 44-404): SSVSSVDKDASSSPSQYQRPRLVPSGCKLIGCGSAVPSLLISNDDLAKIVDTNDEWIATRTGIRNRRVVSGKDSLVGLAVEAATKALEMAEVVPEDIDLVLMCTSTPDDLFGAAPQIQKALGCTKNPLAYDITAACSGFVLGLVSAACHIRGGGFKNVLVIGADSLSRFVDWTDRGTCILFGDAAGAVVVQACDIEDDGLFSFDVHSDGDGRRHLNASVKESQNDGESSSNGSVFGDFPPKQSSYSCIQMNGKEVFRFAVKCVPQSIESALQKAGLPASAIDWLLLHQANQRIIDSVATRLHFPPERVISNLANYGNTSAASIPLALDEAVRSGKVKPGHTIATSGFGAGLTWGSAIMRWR
From the text: as §1

type-I synthase = target: T4, type-I synthase (Ricinus communis, UniProt Q41135); assay: biochemical; design: species or system R. communis
T4 construct: mature plastid protein
T4 sequence (Q41135 43-469): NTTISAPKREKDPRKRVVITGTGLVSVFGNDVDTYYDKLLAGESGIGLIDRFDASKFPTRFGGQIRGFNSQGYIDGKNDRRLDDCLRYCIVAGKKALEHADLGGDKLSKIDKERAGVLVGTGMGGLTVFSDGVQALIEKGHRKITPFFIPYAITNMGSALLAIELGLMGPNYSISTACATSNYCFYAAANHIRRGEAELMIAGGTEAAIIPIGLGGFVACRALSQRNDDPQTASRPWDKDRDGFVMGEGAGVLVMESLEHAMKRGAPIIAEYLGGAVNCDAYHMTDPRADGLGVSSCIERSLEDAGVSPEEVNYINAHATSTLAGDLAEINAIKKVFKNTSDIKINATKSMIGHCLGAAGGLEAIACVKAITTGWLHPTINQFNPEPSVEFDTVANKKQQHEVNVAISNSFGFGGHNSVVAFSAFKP

synthase II [3] = assay: Cerulenin sensitivity of synthase II fraction from cellulose phosphate; type: biochemical, S. oleracea; details: 5 μM cerulenin, 15 minutes, room temperature
Experimental: (§2) Each enzyme source is incubated with 5 μM cerulenin for 15 minutes at room temperature before being assayed with each of the acyl-ACP substrates. After incubation with cerulenin, the decanoyl-ACP activity is reduced 99% in the cellulose phosphate flow-through fraction and only 69% in the synthase II fraction. The palmitoyl-ACP activity in the synthase II fraction is not inhibited by the cerulenin treatment.

synthase I [4] = system: T5, synthase I; assay: Cerulenin sensitivity of cellulose phosphate flow-through fraction; type: biochemical, S. oleracea; details: 0.25 h, 5 μM cerulenin, 15 minutes, room temperature, read-out: reduction of decanoyl-ACP activity
T5 construct: from tissue; host or cells: S. oleracea leaf, cellulose phosphate flow-through
Experimental: as §2

type-II synthase = target: T6, type-II synthase (Ricinus communis, UniProt Q41134); type: biochemical, R. communis
T6 construct: mature plastid protein
T6 sequence (Q41134 117-535): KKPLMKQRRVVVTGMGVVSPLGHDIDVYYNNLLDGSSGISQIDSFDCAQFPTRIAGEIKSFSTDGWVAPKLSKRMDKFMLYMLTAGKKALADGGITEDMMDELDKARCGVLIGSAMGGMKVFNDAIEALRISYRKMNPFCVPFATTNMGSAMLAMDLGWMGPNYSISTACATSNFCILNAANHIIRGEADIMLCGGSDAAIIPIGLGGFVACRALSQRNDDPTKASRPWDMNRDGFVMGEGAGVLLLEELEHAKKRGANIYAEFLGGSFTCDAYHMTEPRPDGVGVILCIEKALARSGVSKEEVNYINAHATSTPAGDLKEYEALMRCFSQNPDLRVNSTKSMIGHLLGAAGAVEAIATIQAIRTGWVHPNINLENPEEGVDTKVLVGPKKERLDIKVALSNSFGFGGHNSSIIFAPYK

synthase I [5] = details: cited from earlier work
synthase II [6] = details: cited from earlier work
[7] = cerulenin concentrations above 50 μM

C/C=C/C/C=C/CCC(=O)[C@H]1O[C@H]1C(N)=O [cerulenin]
sensitivity of synthase I to cerulenin (Synthase I [1]): most sensitive
sensitivity of synthase II to cerulenin (synthase II [2]): less sensitive
sensitivity of synthase III to cerulenin (synthase III): least sensitive
inactivation of type-I synthase (type-I synthase): completely inactivated
inhibition at 5 µM (type-I synthase; read-out: inhibition of activity with C10:0-ACP): > 80%
inhibition of palmitoyl-ACP activity (synthase II [3]): not inhibited
reduction of decanoyl-ACP activity (synthase II [3]): 69%
inhibition at 5 µM (synthase I [4]): 99%
sensitivity of activity with C16:0-ACP (type-II synthase) to cerulenin (type-II synthase): virtually insensitive
reaction with active site of synthase I (synthase I [5]; 5 μM cerulenin): reacts readily
reaction with synthase I (synthase I [5]; [7]): react readily
reaction with active site of synthase II (synthase II [6]; 5 μM cerulenin): not synthase II
reaction with synthase II (synthase II [6]; [7]): react readily
